Measurements taken from patent publication US20250011878A1, “METHOD TO DETECT RNA BIOMARKERS” (ITALFARMACO SPA, priority 2021, published 2025).
Where two headings read alike, the source gives them in different places.

Assays:
[1] = dog, in vivo, 1000 mg/kg
[2] = rat, in vivo, 1000 mg/kg
[3] = tested on: PD-L1; test: PD-L1 surface expression on human monocytes stimulated with TNF-α; assay type: cell-based
[4] = tested on: human monocytes; test: RNAseq gene expression in purified human monocytes treated with ITF3756 and/or TNF-α; assay type: cell-based
Excerpt: PBMCs used for the experiments were obtained from Buffy Coats of healthy donors (all samples tested negative for transmissible diseases as required for blood transfusion) separated over a Ficoll-Hypaque gradient (Biochrom). Monocytes were purified by negative selection from 100×10^6 PBMC using Pan Monocytes Isolation Kit (Milteny) following manufacturer's instructions. By Pan Monocyte Isolation kit untouched monocytes are isolated from human PBMCs and the simultaneous enrichment of classical (CD14^++CD16^−), non classical (CD14^+CD16^++) and intermediate (CD14^++CD16^+) monocytes is achieved. Non-monocytes, such as T cells, NK cells, B cells, dendritic cells, and basophils are indirectly magnetically labeled using a cocktail of biotin-conjugated antibodies and anti-Biotin MicroBeads. Briefly, 400 μL of Buffer (PBS 1×, 0.5% BSA and 2 mM EDTA), 100 μL of FcR Blocking Reagent and 100 μL of Biotin-Antibody Cocktail were added to PBMC, previously washed with PBS by centrifugation 300×g for 5 minutes, mixed and incubate for 5 minutes in the refrigerator (2-8° C.). After incubation, 300 μL of Buffer and 200 μL of anti-biotin microbeads were added to the cells, mixed and incubate further for 10 minutes in the refrigerator. After incubation cells were processed by subsequent magnetic cell separation. Cell suspension was applied onto the column and the flow-through containing unlabeled cells, representing the enriched monocytes, was collected. Purified monocytes were washed with Buffer by centrifugation 300×g for 5 minutes and counted in PBS. Purified monocytes (1,0×10^6/ml) were pre-treated for 2 h with ITF3756 1 μM or DMSO (0.005%) in 12-well plates in 1 ml final volume of complete medium (RPMI (Biochrom), FCS 10% and penicillin/streptomycin 1× (Sigma)). The cells were then stimulated or not with TNF-α (100 ng/mL, Peprotech) for 4h. After incubation with ITF3756 and TNF-α, the cells were collected, washed with PBS by centrifugation 300×g for 5 minutes and stored at −80° C. Samples were thawed on the bench for 2 minutes and total RNA was extracted with Trizol reagent (Thermo Fisher Scientific), following manufacturer's instructions. Briefly, Trizol reagent (0.75 ml Trizol per 5-10×10^6 cells) was added to the samples and the samples were incubated at room temperature (RT) for 5 minutes. After incubation, chloroform (150 μL per 0.75 mL Trizol) was added to the samples and after 3 minutes of incubation at RT, samples were centrifuged for 12000×g for 14 minutes at 4° C. After centrifugation, the mixture separates into 3 phases and RNA remains in the aqueous phase. The aqueous phase was removed for each sample and placed in new tubes, and isopropanol (0,375 ml per 0.75 ml of Trizol) was added in each tube. Samples was incubated for 30 minutes in the refrigerator (2-8° C.). After incubation, samples were centrifugated for 12000×g for 10 minutes at 4° C., the supernatant was removed and 75% ethanol (0.75 ml per 0.75 ml of Trizol) was added to samples. Samples were centrifuged for 7500×g for 5 minutes at 4° C., and the supernatant discarded. RNA was air dried on the bench for 5-10 minutes. RNA Samples was then resuspended in water (10-50 μL). The scheme of the experimental procedures carried out to generate the RNA sequence data is represented in FIG. 1. To determine the quantity and the integrity/purity of RNA samples, check controls were first performed by the Agilent Technologies 2100 Bioanalyzer using RNA 6000 LabChip® kit (Agilent #5067-1511). The Bioanalyzer is a bio-analytical device based on a combination of microfluidic chips, voltage-induced size separation in gel filled channels and laser-induced fluorescence (LIF) detection on a miniaturized scale. The RNA Integrity Number (RIN) software algorithm allows the classification of total RNA, based on a numbering system from 1 to 10, (with 1 being the most degraded and 10 being the most intact). […] Purified samples were processed using TruSeq RNA-Seq v2 Library Preparation Kit. […]

[5] = tested on: macrophages; test: in vitro macrophage differentiation in the presence of ITF3756; assay type: cell-based
[6] = ITF3756 1 μM in combination with TNF-α 100 ng/mL, RNAseq
[7] = ITF3756 1 μM in the presence of TNF-α 100 ng/mL, RNAseq
[8] = ITF3756 + TNFα vs vehicle-treated control (don)
[9] = M2 marker, human monocytes, ITF3756 1 μM, RNAseq
[10] = single treatment (ITF3756 1 μM or TNF-α 100 ng/mL), RNAseq, vs control
[11] = single treatment (ITF3756 1 μM), RNAseq, vs control
[12] = single treatment vs vehicle-treated control (don), monocytes 4 h, padj<0.05
[13] = versus control, not shared with TNF-α or ITF3756+TNF-α

O=C(NO)c1ccc(Cn2nnnc2-c2cccs2)cc1 [ITF3756, N-hydroxy-4-((5-(thiophen-2-yl)-1 H-tetrazol-1-yl)methyl)benzamide]
tolerability [1]: well tolerated | tolerability [2]: well tolerated | surface expression of PD-L1 (upregulation by TNF-α) [3]: inhibited | CD40 gene expression ([4]; ITF3756 1 μM combined with TNF-α 100 ng/mL, RNAseq): slightly increases the upregulation of CD40 expression induced by TNF-α alone | ADA gene expression [4, 6]: upregulation | FATP1/SLC27A1 gene expression [4, 6]: the basal expression of the gene is maintained | IRF6 gene expression [4, 6]: no effect | NBEAL2 gene expression [4, 6]: increases the expression | ANXA6 gene expression [4, 7]: the upregulation is even stronger and probably synergistic | CD84 gene expression [4, 7]: downregulation is further enhanced | CD163 gene expression [4, 7]: down-modulated | CD204/MSR1 gene expression [4, 7]: strongly down-modulated | CD206/MRC1 gene expression [4, 7]: strongly down-modulated | CXCL2 gene expression [4, 7]: reverts the upregulation induce by TNF establishing a normal level of expression | LTBP4 gene expression [4, 7]: counters this downregulation | RANK/TNFRSF11a gene expression [4, 7]: downregulation of RANK/TNFRSF11a is increased compared to single treatments | STAB1 gene expression [4, 7]: synergistically reduced | Genes Down regulated (number of genes modulated) [4, 8]: 2329 | Genes Up regulated (number of genes modulated) [4, 8]: 2282 | MMP9 gene expression ([4]; ITF3756+TNF-α, compared to untreated control, RNAseq): No modulation | Fold change ADA [4, 9]: −1.9 | Fold change CD163 [4, 9]: −4 | Fold change CD204/MSR1 [4, 9]: −2.6 | Fold change CD206/MRC1 [4, 9]: −13.3 | Fold change MMP9 [4, 9]: −3.6 | Fold change STAB1 (Stabilin-1/Clever-1) [4, 9]: −14 | downregulation of PD-L1 (CD274) gene expression ([4]; cells treated with TNF-α+ITF3756, RNAseq): 59% | ADA gene expression [4, 10]: downmodulated | IRF6 gene expression [4, 10]: upregulates the expression | LTBP4 gene expression [4, 10]: upregulates the expression | MMP9 gene expression ([4]; single treatment (ITF3756 1 μM or TNF-α 100 ng/mL), RNAseq, vs untreated control): down-modulated | ANXA6 gene expression [4, 11]: robust upregulation | CD40 gene expression [4, 11]: upregulates | CD84 gene expression [4, 11]: strongly downregulates | CD163 gene expression [4, 11]: down-modulated | CD204/MSR1 gene expression [4, 11]: down-modulated | CD206/MRC1 gene expression [4, 11]: strongly down-modulated | CXCL2 gene expression [4, 11]: decreases the expression | CXCL3 gene expression [4, 11]: reduced the expression | FATP1/SLC27A1 gene expression [4, 11]: up-regulates the expression | NBEAL2 gene expression [4, 11]: increases the expression | RANK/TNFRSF11a gene expression [4, 11]: strong downregulation | STAB1 gene expression [4, 11]: strongly downregulated | CD276 gene expression ([4]; single treatment (ITF3756), vs control): down-regulated the expression | Genes Down regulated (number of genes modulated) [4, 12]: 1503 | Genes Up regulated (number of genes modulated) [4, 12]: 1499 | genes specifically downregulated (Venn diagram) [4, 13]: 386 | genes specifically upregulated (Venn diagram) [4, 13]: 537 | M1 macrophages [5]: increase in M1 macrophages
